# Reference: patent publication US20030232902A1, “Ink composition and ink - jet recording method” (FUJI PHOTO FILM CO., LTD., priority 2002, published 2003)
# How the values were obtained:
# [1] = Solubility of auxiliary solvent in water at 25° C.; conditions: for Solubility of auxiliary solvent in water at 25° C.: in 100 g of water at 25° C.; for Auxiliary solvent Water solubility: Table 1
# [2] = Water solubility of high-boiling point organic solvent; format: physicochemical; conditions: 25° C.
# [3] = Specific gravity of high-boiling point organic solvent; format: physicochemical
Solubility of auxiliary solvent in water at 25° C. [1] [g],Auxiliary solvent Water solubility [1] [g],Compound,High-boiling point organic solvent Water Solubility [2] [g],High-boiling point organic solvent Specific Gravity [3]
20,–,2-ethylene acetate [AS-4],–,–
8,8,"CCOC(C)=O [AS-1, ethyl acetate]",–,–
2,2,"CCCOC(C)=O [AS-2, propyl acetate]",–,–
<1,–,"CCC(CC)COC(C)=O [AS-3, 2-ethylbutyl acetate]",–,–
2,–,"CCOC(=O)CC [AS-7, ethyl propionate]",–,–
–,–,"O=P(OCCCl)(OCCCl)OCCCl [SPX-3, (ClCH2CH2O)3—P═O]",4.64,1.41
–,–,"CCCCCOP(=O)(OCCCCC)OCCCCC [SPX-4, [(n)C5H11O]3—P═O]",4.5,0.94
–,–,(ClCH2CHCHO)3—P═O [SPX-2],0.9,1.51

Compound,Solubility of auxiliary solvent in water at 25° C. [1] [g],Auxiliary solvent Water solubility [1] [g],High-boiling point organic solvent Water Solubility [2] [g],High-boiling point organic solvent Specific Gravity [3]
"CCOCCOC(C)=O [AS-5, 2-ethoxyethyl acetate]",25,–,–,–
"CCCCOC(C)=O [AS-6, butyl acetate]",2,–,–,–
"CCCCOCCOCCOC(C)=O [AS-10, 2-(2-n-butoxyethoxy)ethyl acetate]",2,–,–,–
"O=C1CCCCC1 [AS-11, cyclohexanone]",15,–,–,–
